According to patent publication US6884808B2, “Heterocycle-containing carboxylic acid derivative and drug containing the same” (Eisai Co. Ltd., priority 1995, dated 2005):

Assays:
[1] = system: HL60 cells; assay: Differentiation and induction effects on HL60 cells (CD11b positive cells, flow cytometry); type: cell-based; settings: Homo sapiens, HL-60, 120 h; concentration at which the existing ratio of CD11b positive cells becomes 33%; cultivation for 5 days; read-out: Differentiation and induction effects of HL60 cells ED1/3
Description: Differentiation and Induction Effects on HL60 Cells
It is known that human-derived promyelocytic leukemia cell strains HL60 differentiate into the corresponding granulocytic cells in the presence of all-trans retinoic acid [Breitman, T. Selonick., S. and Colling, S. Proc. Natl. Acad. Sci., 77, 2936(1980)]. In general, cells after differentiation have come to express specific differentiated antigens on their surface. When the HL60 cells are differentiated into granulocytic cells, CD11b which is a differential antigen between granulocytes and monocytes is expressed on the surface of the cells [Fontana, J A., Reppuci, A. Durham, J P. and Mirand, D. Cancer Res. 46, 2469-2473(1986)]. Effects of the invention compound on the differentiation and induction into granulocyte cells were studied by making use of the above-described phenomenon.
HL60 cells were cultured and kept in RPMI 1640 (a medium formulated by Rosewell Park Memorial Institute) to which 10% bovine fetal serum, 1 mM sodium […], 50 μM β-mercaptoethanol, 100 IU/ml of penicillin and 100 μg/ml of streptomycin had been added.
On each well of a 24-well plate, a 1 ml portion of the suspension containing HL60 in an amount of 1×10^5 […] was seeded. The invention compound was then added thereto at varied concentrations, followed by cultivation for 5 days in a 5% CO2-air incubator. After cultivation, the cells of each well were collected in a test tube, to which an FITC-labeled monoclonal antibody against Cd11b, that is, a granulocyte-monocyte specific antigen was added. The cells were then immobilized with 0.2% paraformaldehyde. The existing ratio of CD11b positive cells in the vial HL60 cell group present in each well was determined using flow cytometry [Miller, L J., Schwarting, R. and Springer, T A. J. Immunol. 137, 2891-2900(1986)]. The existing ratios of CD11b positive cells-of-compounds which will be described below were increased according to the concentration. The concentration at which the existing ratio of the positive cells becomes 33% is defined as ED1/3.

[2] = biological target: T1, Retinoic acid receptor: RAR (Homo sapiens, UniProt P10276); assay: Receptor binding assay by using human promyelocytic leukemia cells HL60 (nucleus-extracted fraction, 3H-all-trans retinoic acid); settings: 50% inhibition concentration of 3H-all-trans retinoic acid binding, 4° C. for 16 hours
T1 construct: using a fraction extracted from the nucleus of HL60; endogenous in cells; host or cells: HL60 cells, nucleus-extracted fraction (0.4 M KCl extract, 100,000 x g supernatant)
T1 sequence (P10276 1-462): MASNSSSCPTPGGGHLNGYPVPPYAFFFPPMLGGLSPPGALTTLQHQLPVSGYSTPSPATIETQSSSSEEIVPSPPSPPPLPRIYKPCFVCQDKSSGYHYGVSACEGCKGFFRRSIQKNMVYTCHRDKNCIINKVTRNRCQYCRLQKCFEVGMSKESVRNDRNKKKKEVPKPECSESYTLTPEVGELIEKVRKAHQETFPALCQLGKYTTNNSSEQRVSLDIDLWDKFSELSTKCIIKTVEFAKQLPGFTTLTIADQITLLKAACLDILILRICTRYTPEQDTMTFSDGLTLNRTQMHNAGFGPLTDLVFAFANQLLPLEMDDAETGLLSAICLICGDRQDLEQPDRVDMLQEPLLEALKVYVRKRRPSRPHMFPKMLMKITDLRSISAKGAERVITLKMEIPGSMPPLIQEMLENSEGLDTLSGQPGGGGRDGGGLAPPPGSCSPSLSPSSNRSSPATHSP
Protocol: Receptor binding assay by using human promyelocytic leukemia cells HL60
The nucleus-extracted fraction was prepared as described below.
In 15 ml of Solution A [5 mM sodium phosphate (pH 7.4), 10 mM monothioglycerol, 10% v/v glycerol, 1 mM phenylmethyl sulfonyl fluoride (PMSF), 10 μg/ml of aprotinin and 25 μg/ml of leupeptin], HL60 cells (5×10^8) were suspended. The resulting suspension was homogenized, followed by centrifugal separation to remove the supernatant. The precipitate so obtained was suspended in 15 ml of Solution B [10 mM tris-HCl (Tris-HCl) (pH 8.5), 10 mM monothioglycerol, 10% (v/v) glycerol, 1 mM PMSF, 10 μg/ml aprotinin, 25 μg/ml leupeptin and 0.4 M KC1]. After being allowed to stand at 4° C. for one hour, the resulting suspension was subjected to ultracentrifugation at 100,000 xg and 4° C. for one hour.
Receptor binding assay was carried out as follows:
The resulting mixture was allowed to stand at 4° C. for 16 hours. […] The count of the supernatant was determined by a scintillation counter.

Row | Compound | melting point | EC (33% CD11b positive cells) [1] [µM] | IC50 [2] [nM]
1 | CC1(C)CCC(C)(C)c2cc(-c3ccc(-c4ccc(C(=O)O)cc4)[nH]3)ccc21 [1), reference compound] |  | 0.00094 | 0.5
2 | CC1=C(/C=C/C(C)=C/C=C/C(C)=C/C(=O)O)C(C)(C)CCC1 [All-trans-retinoic acid, reference compound] |  | 0.0018 | 
3 | CC1(C)CCC(C)(C)c2nc(-c3cc(-c4ccc(C(=O)O)cc4)co3)cnc21 [Compound of Ex. 4, 4-[4-[2-[2-(5,6,7,8-Tetrahydro-5,5,8,8-tetramethylquinoxalyl)]furyl]]benzoic acid] |  | 0.0002 | 7.2
4 | CC(C)c1ncc(-c2cc(-c3ccc(C(=O)O)cc3)c[nH]2)nc1C(C)C [Example 27, 4-[4-[2-[2-(5,6-Diisopropylpyrazinyl)]pyrrolyl]]benzoic acid] | 245 °C (dec.) |  | 
5 | CC(C)c1ncc(-c2cc(-c3ccc(C(=O)O)cc3)cs2)nc1C(C)C [Example 30, 4-[4-[2-[2-(5,6-Diisopropylpyrazinyl)]thienyl]]benzoic acid] | 226 to 229 °C |  | 
6 | CCn1cc(-c2ccc(C(=O)O)cc2)cc1-c1cnc(C(C)C)c(C(C)C)n1 [Example 36, 4-[4-[2-[2-(5,6-Diisopropylpyrazinyl)]-1-ethylpyrrolyl]]benzoic acid] | 272 to 274 °C |  | 
7 | CC(C)c1ncc(-c2cc(-c3ccc(C(=O)O)cc3)co2)nc1C(C)C [Example 38, 4-[4-[2-[2-(5,6-Diisopropylpyrazinyl)]furyl]]benzoic acid] | 215 to 218 °C |  | 
8 | CC1(C)CCC(C)(C)c2nc(-c3cc(-c4ccc(C(=O)O)cc4)cn3Cc3cccnc3)cnc21 [Example 41, 4-[4-[2-[2-(5,6,7,8-tetrahydro-5,5,8,8-tetramethylquinoxalyl)]-1-(3-pyridylmethyl)pyrrolyl]]benzoic acid] | 263 to 266 °C |  | 
9 | CC(C)c1ncc(-c2ccc(-c3ccc(C(=O)O)cc3)s2)nc1C(C)C [Example 46, 4-[2-[5-[2-(5,6,-Diisopropylpyrazinyl)]thienyl]]benzoic acid] | 270 to 272 °C |  | 
10 | CC(C)c1ncc(-c2ccc(-c3ccc(C(=O)O)cc3)n2C(C)C)nc1C(C)C [Example 51, 4-[2-[5-[2-(5,6-Diisopropylpyrazinyl)]-1-isopropylpyrrolyl]]benzoic acid] | 215 °C (dec.) |  | 
11 | CC1(C)CCC(C)(C)c2nc(C(=O)Nc3ccc(C(=O)O)cc3)cnc21 [Example 88, 4-(5,6,7,8-Tetrahydro-5,5,8,8-tetramethyl-2-quinoxalinecarbamoyl)benzoic acid] | 257 to 259 °C |  | 
12 | O=C(O)c1ccc(NC(=O)c2cnc(C3CCCC3)c(C3CCCC3)n2)cc1 [Example 90, 4-(2,3-Dicyclopentyl-2-pyrazinecarbamoyl)benzoic acid] | 248 to 250 °C |  | 
13 | CC(C)c1nnc(C(=O)Nc2ccc(C(=O)O)cc2)nc1C(C)C [Example 91, 4-(5,6-Diisopropyl-3-[1,2,4]triazinecarbamoyl)benzoic acid] | 182 to 184 °C |  | 

The next lines start with results.

Row | melting point | Compound | EC (33% CD11b positive cells) [1] [µM] | IC50 [2] [nM]
14 | 145 to 147 °C | CC1(C)CC(C)(C)c2nc(-c3cc(-c4ccc(C(=O)O)cc4)c[nH]3)cnc21 [Example 28, 4-[4-[2-[2-(5,5,7,7-Tetramethylcyclopenta[b]pyrazinyl)]pyrrolyl]]benzoic acid] |  | 
15 | 248 to 250 °C | Cc1[nH]c(-c2cnc3c(n2)C(C)(C)CCC3(C)C)cc1-c1ccc(C(=O)O)cc1 [Example 29, 4-[3-[5-[2-(5,6,7,8-Tetrahydro-5,5,8,8-tetramethylquinoxalyl)]-2-methylpyrrolyl]]benzoic acid] |  | 
16 | 222 °C (dec.) | CC1(C)CC(C)(C)c2nc(-c3cc(-c4ccc(C(=O)O)cc4)cs3)cnc21 [Example 31, 4-[4-[2-[2-(5,5,7,7-Tetramethylcyclopenta[b]pyrazinyl)]thienyl]]benzoic acid] |  | 
17 | 215 to 217 °C | Cc1sc(-c2cnc3c(n2)C(C)(C)CCC3(C)C)cc1-c1ccc(C(=O)O)cc1 [Example 32, 4-[3-[5-[2-(5,6,7,8-Tetrahydro-5,5,8,8-tetramethylquinoxalyl)]-2-methylthienyl]]benzo acid] |  | 
18 | 225 to 227 °C | CC(C)n1cc(-c2ccc(C(=O)O)cc2)cc1-c1cnc2c(n1)C(C)(C)CCC2(C)C [Example 33, 4-[4-[2-[2-(5,6,7,8-tetrahydro-5,5,8,8-tetramethylquinoxalyl)]-1-isopropylpyrrolyl]]benzoic acid] |  | 
19 | 250 °C (dec.) | Cn1cc(-c2ccc(C(=O)O)cc2)cc1-c1cnc2c(n1)C(C)(C)CC2(C)C [Example 35, 4-[4-[2-[2-(5,5,7,7-Tetramethylcyclopenta[b]pyrazinyl)]-1-methylpyrrolyl]]benzoic acid] |  | 
20 | 265 to 267 °C | Cc1c(-c2ccc(C(=O)O)cc2)cc(-c2cnc3c(n2)C(C)(C)CCC3(C)C)n1C [Example 37] |  | 
21 | 250 to 252 °C | CC1(C)CC(C)(C)c2nc(-c3cc(-c4ccc(C(=O)O)cc4)co3)cnc21 [Example 39, 4-[4-[2-[2-(5,5,7,7-Tetramethylcyclopenta[b]pyrazinyl)]-furyl]]benzoic acid] |  | 
22 | 270 to 272 °C | Cc1oc(-c2cnc3c(n2)C(C)(C)CCC3(C)C)cc1-c1ccc(C(=O)O)cc1 [Example 40, 4-[3-[5-[2-(5,6,7,8-Tetrahydro-5,5,8,8-tetramethylquinoxalyl)]-2-methylfuryl]]benzoic acid] |  | 
23 | 278 °C (dec.) | CC1(C)CCC(C)(C)c2nc(-c3ccc(-c4ccc(C(=O)O)cn4)[nH]3)cnc21 [Example 45, 6-[2-[5-[2-(5,6,7,8-Tetrahydro-5,5,8,8-tetramethylquinoxalyl)]pyrrolyl]]nicotinic acid] |  | 
24 | 275 °C (dec.) | CC1(C)CC(C)(C)c2nc(-c3ccc(-c4ccc(C(=O)O)cc4)s3)cnc21 [Example 47, 4-[2-[5-[2-(5,5,7,7-Tetramethylcyclopenta[b]pyrazinyl)]-thienyl]]benzoic acid] |  | 
25 | 260 to 262 °C | CC(C)c1ncc(-c2ccc(-c3ccc(C(=O)O)cc3)o2)nc1C(C)C [Example 48, 4-[2-[5-[2-(5,6-Diisopropropylpyrazinyl)]furyl]]benzoic acid] |  | 
26 | 238 to 240 °C | CC1(C)CC(C)(C)c2nc(-c3ccc(-c4ccc(C(=O)O)cc4)o3)cnc21 [Example 49, 4-[2-[5-[2-(5,5,7,7-Tetramethylcyclopenta[b]pyrazinyl)]-furyl]]benzoic acid] |  | 
27 | 218 to 220 °C | Cn1c(-c2ccc(C(=O)O)cc2)ccc1-c1cnc2c(n1)C(C)(C)CC2(C)C [Example 50, 4-[2-[5-[2-(5,5,7,7-Tetramethylcyclopenta[b]pyrazinyl)]-1-methylpyrrolyl]]benzoic acid] |  | 
28 | 236 to 238 °C | CC1(C)CC(C)(C)c2nc(C(=O)Nc3ccc(C(=O)O)cc3)cnc21 [Example 89, 4-(5,5,7,7-Tetramethyl-2-cyclopenta[b]pyrazinecarbamoyl)benzoic acid] |  | 
